Read-outs that look alike come from different tables or passages of the source.

Data on two compounds can be found in patent US20040254243A1 (priority 2001, published 2004).

A short description of data set [1]: pKa values from the literature.
For data set [2] the following is noted: cited from earlier work.

`N=C(N)NCCC[C@H](N)C(=O)O` [arginine]: the “pK, mean value” in data set [1] (mean of pK1 and pK2) is “about 5.6”.
On to `CC(C(=O)O)c1cccc(C(=O)c2ccccc2)c1` (stereo not shown) [ketoprofen, 2-(3-benzoylphenyl)propionic acid], for which the pKa in data set [1] (acetonitrile/water (3/1) and methanol/water (3/1)) is approximately 5.5; in data set [2] (acetonitrile/water (3/1)) it was 5.02; in data set [2] (methanol/water (3/1)), 5.94.
